The values that follow come from paper PMC2807730 (Bioorganic & medicinal chemistry letters, 2009).

One test deals with Clk1 (Homo sapiens, UniProt P49759). As to conditions: cited from earlier work.
Test [1] addresses T1, Clk4 (Homo sapiens, UniProt Q9HAZ1). The conditions noted are these: cited from earlier work.
A further test deals with Dyrk1A (Homo sapiens, UniProt Q13627). As to the kind of experiment: Dyrk1A inhibition. It counts as biochemical. The conditions noted are these: data not shown.
Test [2] has as its target T1, Clk4. As to the kind of experiment: bioluminescent, luciferase-based Clk4 assay.

Bounds are passed on as bounds.

T1 sequence (Q9HAZ1 whole entry): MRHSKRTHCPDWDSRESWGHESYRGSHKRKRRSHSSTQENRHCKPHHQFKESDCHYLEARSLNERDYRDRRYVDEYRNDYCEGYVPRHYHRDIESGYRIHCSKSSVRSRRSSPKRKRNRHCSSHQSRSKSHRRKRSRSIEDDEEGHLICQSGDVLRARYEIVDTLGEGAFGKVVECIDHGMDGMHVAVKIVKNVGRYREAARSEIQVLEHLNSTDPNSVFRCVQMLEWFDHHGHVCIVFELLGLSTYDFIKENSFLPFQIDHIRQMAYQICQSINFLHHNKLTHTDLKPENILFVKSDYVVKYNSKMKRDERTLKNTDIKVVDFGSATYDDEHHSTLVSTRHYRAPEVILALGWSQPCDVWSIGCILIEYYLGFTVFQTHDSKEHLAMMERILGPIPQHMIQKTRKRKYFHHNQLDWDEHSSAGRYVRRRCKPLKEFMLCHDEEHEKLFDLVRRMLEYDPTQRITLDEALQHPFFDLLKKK
Sequence of Clk1 (P49759 whole entry): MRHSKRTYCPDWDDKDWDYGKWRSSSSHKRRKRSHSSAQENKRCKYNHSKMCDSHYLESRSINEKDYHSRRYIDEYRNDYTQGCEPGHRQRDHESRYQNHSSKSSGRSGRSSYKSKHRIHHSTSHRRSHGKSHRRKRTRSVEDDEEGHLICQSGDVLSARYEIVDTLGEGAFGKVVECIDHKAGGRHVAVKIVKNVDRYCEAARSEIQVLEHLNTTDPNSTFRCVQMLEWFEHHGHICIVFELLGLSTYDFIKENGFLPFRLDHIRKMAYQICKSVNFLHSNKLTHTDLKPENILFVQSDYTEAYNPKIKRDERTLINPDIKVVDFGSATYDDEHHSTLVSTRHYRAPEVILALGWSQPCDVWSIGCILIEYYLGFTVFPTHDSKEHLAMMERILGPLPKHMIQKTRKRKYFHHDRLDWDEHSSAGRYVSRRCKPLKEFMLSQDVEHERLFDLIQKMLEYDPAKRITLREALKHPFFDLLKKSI

Regarding `CCN1/C(=C/C(C)=O)Sc2ccc(OC)cc21` [compound 1], the “IC50 values versus Clk1” value on Clk1 is reported as “low-nanomolar”. Further, the “IC50 values versus Clk4” value on Clk4 [1] is “low-nanomolar”.

As to `c1csc(CNc2ncnc3ccc(-c4ccc5c(c4)OCO5)cc23)c1` [compound 4], the “inhibition of Dyrk1A” value at Dyrk1A was “potent inhibitors”. The “activity versus numerous EGFR mutants” value in the test on EGFR mutants is listed as greater than 250 nM. On Clk4 [2] (compound constant at 70 nM, high ATP concentrations (>200 μM), data not shown), the “enzyme inhibition in ATP dose response” value is on record as “sharp decline in enzyme inhibition”. For the same molecule, the “potency in peptide dose response” value at Clk4 [2] (compound constant at 70 nM, increasing dose of peptide, data not shown) is listed as “did not effect the potency”. Further, the “change of potency with ATP concentration” value at Clk4 [2] (dose response at 1, 50, 100 μM ATP (Figure 4A)) is reported as “loss in potency when ATP levels rise”. In addition, the “change of potency with peptide substrate concentration” value at Clk4 [2] (dose response at 50, 100, 200 μM peptide (Figure 4B)) was “no affect on the compound potency”.
